The species named for the test is Rattus norvegicus. The experiment in a line: Inhibition of ADP-induced activation of rat platelets using aggregometry. Type of test: functional.

`CNc1nc(Cl)nc2c1ncn2C[C@H](COP(=O)(O)O)OP(=O)(O)O` had a Ki of 2.6 µM.

Consider `CNc1nc(Cl)nc2c1ncn2C(COP(=O)(O)O)COP(=O)(O)O`, for which the affinity, expressed as Ki, was 5.5 µM. Against the preceding molecule, the Ki is about 2.1-fold higher.

Consider `CNc1nc(Cl)nc2c1ncn2CC(COP(=O)(O)O)COP(=O)(O)O`, for which the affinity, expressed as Ki, was 0.3 µM.

For `CNc1nc(Cl)nc2c1ncn2C[C@@H](COP(=O)(O)O)OP(=O)(O)O`, the Ki stood at 1.4 µM. Compared with the last molecule, the Ki is about 4.7-fold higher.

In turn, `CNc1nc(Cl)nc2c1ncn2CCC(COP(=O)(O)O)COP(=O)(O)O` yielded an inhibitory constant (Ki) of 0.46 µM.

In the case of `CNc1ncnc2c1ncn2[C@H]1C[C@H](OP(=O)(O)O)[C@@H](COP(=O)(O)O)O1`, the affinity corresponds to a Ki of 0.58 µM.

`CNc1nc(Cl)nc2c1ncn2C1C[C@@H](OC(=O)NC(C)C)[C@@H](COP(=O)(O)O)O1` (stereo partly drawn) had a Ki of 6.4 µM.

Consider `CNc1nc(Cl)nc2c1ncn2[C@H]1CC(OC(C)=O)[C@]2(COP(=O)(O)O)CC12` (stereo partly drawn), for which affinity was put at a Ki of 10 µM.

As to `CNc1nc(Cl)nc2c1ncn2CC(COC(C)=O)COC(C)=O`, the Ki came to 18 µM.

For `CNc1nc(Cl)nc2c1ncn2CC(COC(=O)Nc1ccccc1)COC(=O)Nc1ccccc1`, the affinity corresponds to a Ki of 24 µM. This Ki and that of the molecule before are within 1.5-fold of each other.

Regarding `CCC(=O)OCC(COP(=O)(O)O)Cn1cnc2c(NC)nc(Cl)nc21` (stereo not drawn), the Ki was found to be 21 µM.

Regarding `CNc1nc(Cl)nc2c1ncn2[C@H]1CC(OP(=O)(O)O)[C@]2(COC(C)=O)CC12` (stereo partly drawn), the Ki amounted to 16 µM.

`CNc1nc(Cl)nc2c1ncn2CC(CP(=O)(O)O)CP(=O)(O)O` displayed a Ki of 0.68 µM. Compared with the last molecule, the Ki is about 24-fold lower.

`CNc1nc(Cl)nc2c1ncn2CC(COC(C)=O)COC(=O)Cc1ccccc1` (stereo not drawn) showed a Ki of 12.3 µM.

`CNc1nc(Cl)nc2c1ncn2[C@H]1CC(O)[C@]2(COP(=O)(O)O)CC12` (stereo partly drawn) displayed a Ki of 33 µM. This Ki is about 2.7-fold higher than that of the molecule before.

Molecule `CNc1nc(Cl)nc2c1ncn2CC(COP(=O)(O)OP(=O)(O)O)CP(=O)(O)O` (stereo not drawn) came in with a Ki of 1.1 µM. This Ki is about 30-fold lower than that of the molecule before.

In turn, `CNc1nc(Cl)nc2c1ncn2CC(COC(C)=O)COC(=O)c1ccccc1` (stereo not drawn) had an inhibition constant (Ki) of 6.9 µM. Against the preceding molecule, the Ki is about 6.3-fold higher.

`CNc1nc(Cl)nc2c1ncn2CC(COC(=O)c1ccccc1)COC(=O)c1ccccc1`: the affinity, expressed as Ki, was 5.1 µM.

`CNc1nc(Cl)nc2c1ncn2CC(COC(=O)Oc1ccccc1)COC(=O)Oc1ccccc1` showed a Ki of 26 µM.

Regarding `CNc1nc(Cl)nc2c1ncn2CC(COC(=O)c1ccccc1F)COC(=O)c1ccccc1F`, the affinity corresponds to a Ki of 24 µM. This Ki and that of the molecule before are within 1.5-fold of each other.

The molecule `CNc1nc(Cl)nc2c1ncn2CC(COC(=S)SCc1ccccc1)COC(=S)SCc1ccccc1` had a Ki of 87 µM.

For the molecule `CNc1nc(Cl)nc2c1ncn2CC(COC(=O)c1ccccc1)COP(=O)(O)O` (stereo not drawn), the inhibitory constant (Ki) was determined as 18 µM.

`CNc1nc(Cl)nc2c1ncn2CC(COC(=O)CCC(=O)O)COC(=O)CCC(=O)O` showed a Ki of 18 µM.

For `C/C=C\C(=O)OCC(COC(=O)/C=C/C)Cn1cnc2c(NC)nc(Cl)nc21` (stereo not drawn), the affinity, expressed as Ki, was 10 µM.

The molecule `CNc1nc(Cl)nc2c1ncn2CC(COC(=O)c1c(F)cccc1F)COC(=O)c1c(F)cccc1F` registered a Ki of 33 µM. Compared with the last molecule, the Ki is about 3.3-fold higher.

With `CNc1nc(Cl)nc2c1ncn2[C@H]1C[C@@H](OP(=O)(O)O)[C@@H](COP(=O)(O)O)O1`, the Ki is 0.42 µM.

`CNc1nc(Cl)nc2c1ncn2[C@H]1C[C@@H](OP(=O)(O)O)[C@]2(COP(=O)(O)O)C[C@H]12` came in with a Ki of 0.031 µM.

For `CNc1nc(Cl)nc2c1ncn2CC(COC(C)=O)COP(=O)(O)O` (stereo not drawn), the affinity, expressed as Ki, was 110 µM.

`CNc1ncnc2c1ncn2CC(COP(=O)(O)O)COP(=O)(O)O` gave a Ki of 0.51 µM.

`CNc1nc(Cl)nc2c1ncn2[C@H]1CC(OC(C)=O)[C@]2(COC(C)=O)CC12` (stereo partly drawn) had an inhibition constant (Ki) of 29 µM.

The molecule `CCC(=O)OCC(COC(=O)CC)Cn1cnc2c(NC)nc(Cl)nc21` had a Ki of 23 µM.

`CNc1nc(Cl)nc2c1ncn2CC(COC(=O)Cc1ccccc1)COC(=O)Cc1ccccc1`: the inhibition constant Ki is 2 µM.

The molecule `CCNC(=O)O[C@@H]1CC(n2cnc3c(NC)nc(Cl)nc32)O[C@@H]1COP(=O)(O)O` (stereo partly drawn) displayed a Ki of 11 µM.

Molecule `CNc1nc(Cl)nc2c1ncn2CC(COC(=O)C(C)(C)C)COP(=O)(O)O` (stereo not drawn) registered a Ki of 29 µM.

`CNc1nc(Cl)nc2c1ncn2CC(COC(=O)C(C)(C)C)COC(=O)C(C)(C)C` showed a Ki of 3.6 µM.

The molecule `CNc1nc(Cl)nc2c1ncn2CC(COC(=O)Nc1ccccc1)COP(=O)(O)O` (stereo not drawn) returned a Ki of 2.5 µM.

As for `CNc1nc(Cl)nc2c1ncn2[C@H]1CC(OP(=O)(O)O)[C@]2(CO)CC12` (stereo partly drawn), the Ki was found to be 29 µM.

In turn, `CNc1nc(Cl)nc2c1ncn2CC(CCCP(=O)(O)O)CCCP(=O)(O)O` showed a Ki of 25 µM.

The Ki is the equilibrium dissociation constant of an inhibitor or competing ligand from its target. A low value points to tighter binding.

The record behind these values is ChEMBL document CHEMBL1135570, “Acyclic analogues of adenosine bisphosphates as P2Y receptor antagonists: phosphate substitution leads to multiple pathways of inhibition of platelet aggregation” (J Med Chem, 2002).
